Laboratory results reported in patent publication US9151743B2, “Use of EEF1A as biomarker and a method of screening MetAP2 inhibitors” (MERCK PATENT GMBH, priority 2008, dated 2015).

How the values were obtained:
[1] = tested on: bEND3, HT1080, HCT116 cells (EEF1A1 Band 2); assay: IEF separation of cellular extracts after MetAP2 inhibitor treatment, Coomassie Blue staining; assay type: cell-based, mouse, human; conditions: 100 nM TNP-470; 1 μM A-832234; versus DMSO-treated cells
Protocol: (§1) Cellular extracts were electrophoretically separated for detailed analysis. Isoelectric focusing electrophoresis was performed in a gradient range of pH 7-9. The IEF gels (CleanGel IEF ultra ETC1001-52 from ETC, Germany) were re-hydrated in 7 M urea, 2 M thiourea, 1% DTE, 4% CHAPS, 3%, Servalyte 7-9 for 120 min, and assembled on a Multiphor II electrophoresis unit (GE Healthcare). Samples (5 μl) were applied close to the anode and run with anode buffer (6 M glycine) and cathode fluid 10 (Serva, Germany). […] Separation was performed at 2000 V for 210 min, followed by band sharpening at 2500 V for 10 min. After removal the gel was equilibrated in transfer buffer (50 mM Tris-HCl pH 7.5, 4 M guanidinium chloride, 1 mg/ml DTT) for a diffusion blot onto PVDF membrane and run overnight. Subsequently, the membrane was stained either with Coomassie Blue or immunostained with rabbit PcAb anti-human EEF1A1 (Proteintech Group, USA; 11402-1-AP) for 3 h and detected with ECL-Plus reagent (GE Healthcare).
IEF separation of cellular extracts after treatment of different endothelial and cancer cells (mouse: bEND3, human: HT1080, HCT116) was performed in a range of pH 7-9 (FIG. 1). Comparing extracts from DMSO-treated and MetAP2 inhibitor-treated (100 nM TNP-470; […] . A zoomed view is shown in FIG. 2.

EEF1A1 in bEND3 cells = assay: EEF1A1 electrophoretic mobility shift in IEF gel, bEND3 cell extracts; assay type: cell-based, mouse; conditions: for EEF1A1 mobility shift versus negative controls (FIG. 10): bEND3 cells, 48 h, concentrations of Table 1
Protocol: as §1
The compounds used were characterized as inhibitors of MetAP2 and inhibitors of HUVEC cell proliferation with the indicated potencies (IC50).

MetAP2 = MetAP2 (Homo sapiens, UniProt P50579); assay: Inhibition of MetAP2 activity: cleavage of tripeptide Met-Ala-Ser, enzyme-coupled detection of methionine; assay type: biochemical
Sequence of MetAP2 (P50579 whole entry, species assumed): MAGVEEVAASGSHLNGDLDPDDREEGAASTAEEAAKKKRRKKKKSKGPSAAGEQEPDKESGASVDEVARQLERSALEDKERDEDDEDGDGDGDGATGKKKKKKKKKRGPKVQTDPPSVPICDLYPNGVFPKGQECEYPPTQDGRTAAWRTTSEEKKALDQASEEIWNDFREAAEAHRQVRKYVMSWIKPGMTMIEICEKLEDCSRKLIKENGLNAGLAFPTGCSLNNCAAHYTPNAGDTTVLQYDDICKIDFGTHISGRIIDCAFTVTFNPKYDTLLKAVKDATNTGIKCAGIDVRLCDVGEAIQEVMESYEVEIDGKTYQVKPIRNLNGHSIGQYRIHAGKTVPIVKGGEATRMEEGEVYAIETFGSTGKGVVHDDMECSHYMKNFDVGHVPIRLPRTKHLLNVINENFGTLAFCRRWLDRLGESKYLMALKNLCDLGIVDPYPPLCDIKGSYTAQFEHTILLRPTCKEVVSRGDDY

HUVEC endothelial cells = assay: Inhibition of HUVEC cell proliferation (colorimetric BrdU-Elisa); conditions: Homo sapiens, 72 h, read-out: Inhibition of HUVEC proliferation (BrdU incorporation) (IC50)
Protocol: In this case the compounds were incubated in serial dilutions with the HUVEC endothelial cells for 72 h and subsequently processed for BrdU detection.

Row | Compound | new protein band (Band 2) after IEF pH 7-9 [1] | EEF1A1 mobility shift versus negative controls (FIG. 10) (EEF1A1 in bEND3 cells) | IC50 (MetAP2) [nM] | EEF1A1 mobility shift, time course (EEF1A1 in bEND3 cells; bEND3 cell extract, TNP470, up to 48 h) | IC50 (HUVEC endothelial cells) [nM]
1 | CCN(CC)C/C=C\c1cc(F)ccc1S(=O)(=O)Nc1ccc2c(c1C(=O)O)CCCC2 [Compound A-832234, 2-[2-((Z)-3-Diethylamino-propenyl)-4-fluoro-benzenesulfonylamino]-5,6,7,8-tetrahydro-naphthalene-1-carboxylic acid] | a novel protein band | active MetAP2 inhibitors |  |  | 
2 | CO[C@@H]1[C@H](OC(=O)NC(=O)CCl)CC[C@]2(CO2)[C@H]1[C@@]1(C)O[C@@H]1CC=C(C)C [TNP470] | a novel protein band | active MetAP2 inhibitors | 14 | a second band (Band 2) with increasing intensity was already to be seen after 2 h | 0.1
